In the supplement of paper PMC6045584:
± gives the standard deviation of the averaged measurements.

Tests used:
NILOTINIB = compound: Cc1cn(-c2cc(NC(=O)c3ccc(C)c(Nc4nccc(-c5cccnc5)n4)c3)cc(C(F)(F)F)c2)cn1 [NILOTINIB]; test: surviving fraction relative to DMSO-only wells; higher = less growth inhibition; conditions: exposure time: 5 days
In short: (§1)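 Viability was determined by CellTiter-Glo luminescence, expressed as surviving fraction normalised to the median of DMSO-only wells. The cells were log-phase tumour cell lines seeded at 250–500 per well in 384-well plates and, after 24 hours, exposed continuously for five days to inhibitors at 0.5, 1, 5, 10, 50, 100, 500 and 1000 nM. Three screens per line were run, keeping only lines with replicate Pearson r >0.7 and median Z' >0.3.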

BEZ-235 = compound: Cn1c(=O)n(-c2ccc(C(C)(C)C#N)cc2)c2c3cc(-c4cnc5ccccc5c4)ccc3ncc21 [BEZ-235]; test: as above; conditions: exposure time: 5 days
In short: as §1

| Test System | surviving fraction (NILOTINIB; 0.5 nM) | surviving fraction (NILOTINIB; 1 nM) | surviving fraction (NILOTINIB; 5 nM) | surviving fraction (NILOTINIB; 10 nM) | surviving fraction (NILOTINIB; 50 nM) | surviving fraction (NILOTINIB; 100 nM) | surviving fraction (NILOTINIB; 500 nM) | surviving fraction (NILOTINIB; 1000 nM) | surviving fraction (BEZ-235; 0.5 nM) | surviving fraction (BEZ-235; 1 nM) | surviving fraction (BEZ-235; 5 nM) | surviving fraction (BEZ-235; 10 nM) | surviving fraction (BEZ-235; 50 nM) | surviving fraction (BEZ-235; 100 nM) | surviving fraction (BEZ-235; 500 nM) | surviving fraction (BEZ-235; 1000 nM) |
| --- | --- | --- | --- | --- | --- | --- | --- | --- | --- | --- | --- | --- | --- | --- | --- | --- |
| SCC36 HEADNECK | 1.04 ± 0.035 | 1.02 ± 0.043 | 1.06 ± 0.15 | 1.09 ± 0.046 | 0.839 ± 0.048 | 0.849 ± 0.04 | 0.74 ± 0.052 | 0.79 ± 0.038 | 1 ± 0.15 | 1.05 ± 0.043 | 1.12 ± 0.048 | 1.16 ± 0.074 | 1.11 ± 0.08 | 0.966 ± 0.08 | 0.497 ± 0.022 | 0.352 ± 0.015 |
| CAL51 BREAST | 0.977 ± 0.039 | 0.897 ± 0.066 | 1.01 ± 0.038 | 0.947 ± 0.073 | 1.03 ± 0.068 | 1.01 ± 0.06 | 0.952 ± 0.059 | 0.971 ± 0.032 | 0.92 ± 0.025 | 0.958 ± 0.035 | 0.902 ± 0.086 | 0.894 ± 0.056 | 0.453 ± 0.032 | 0.279 ± 0.018 | 0.097 ± 0.005 | 0.0853 ± 0.0042 |
| HOS BONE | 1.05 ± 0.024 | 1.014 ± 0.0049 | 1.05 ± 0.033 | 1.05 ± 0.025 | 1.065 ± 0.0095 | 1.04 ± 0.026 | 1.03 ± 0.025 | 1.02 ± 0.041 | 1.02 ± 0.034 | 1.05 ± 0.036 | 1.02 ± 0.014 | 1.01 ± 0.018 | 0.763 ± 0.034 | 0.591 ± 0.017 | 0.317 ± 0.015 | 0.285 ± 0.015 |
| HCC78 LUNG | 1.01 ± 0.092 | 0.993 ± 0.085 | 0.994 ± 0.055 | 1.1 ± 0.12 | 1.05 ± 0.09 | 1.1 ± 0.095 | 0.719 ± 0.085 | 0.525 ± 0.03 | 0.953 ± 0.086 | 0.943 ± 0.17 | 1.05 ± 0.23 | 1.09 ± 0.15 | 0.621 ± 0.18 | 0.393 ± 0.05 | 0.0757 ± 0.011 | 0.0527 ± 0.01 |
| HCC1806 BREAST | 0.977 ± 0.016 | 0.97 ± 0.048 | 1.1 ± 0.14 | 1.02 ± 0.067 | 0.844 ± 0.088 | 0.755 ± 0.083 | 0.666 ± 0.044 | 0.781 ± 0.026 | 0.958 ± 0.16 | 0.986 ± 0.14 | 1.17 ± 0.085 | 1.15 ± 0.1 | 0.837 ± 0.016 | 0.662 ± 0.05 | 0.388 ± 0.036 | 0.317 ± 0.041 |
| SUM149.B1*.S BREAST | 1.09 ± 0.026 | 1.08 ± 0.051 | 1.163 ± 0.0038 | 1.12 ± 0.031 | 1.1 ± 0.046 | 1.13 ± 0.018 | 1.18 ± 0.035 | 1.11 ± 0.036 | 1.11 ± 0.041 | 1.12 ± 0.049 | 1.14 ± 0.038 | 1.12 ± 0.022 | 1.039 ± 0.0098 | 0.969 ± 0.072 | 0.376 ± 0.028 | 0.21 ± 0.0038 |
| T47D BREAST | 1.02 ± 0.041 | 1.065 ± 0.0097 | 1.07 ± 0.025 | 1.04 ± 0.045 | 1.07 ± 0.051 | 1.06 ± 0.026 | 1.05 ± 0.041 | 1.08 ± 0.038 | 1.07 ± 0.034 | 1.05 ± 0.015 | 1.04 ± 0.019 | 1.02 ± 0.016 | 0.89 ± 0.015 | 0.7209 ± 0.0056 | 0.47 ± 0.016 | 0.312 ± 0.0077 |
| SUM159 BREAST | 1.1 ± 0.039 | 1.1 ± 0.021 | 1.11 ± 0.021 | 1.09 ± 0.032 | 1.06 ± 0.023 | 1.077 ± 0.0068 | 1.055 ± 0.0095 | 1.06 ± 0.016 | 1.11 ± 0.11 | 1.11 ± 0.099 | 1.1 ± 0.065 | 1.09 ± 0.069 | 0.922 ± 0.062 | 0.635 ± 0.065 | 0.228 ± 0.014 | 0.168 ± 0.015 |
| HCT15 LARGE INTESTINE | 1.05 ± 0.082 | 1.01 ± 0.071 | 1.07 ± 0.12 | 1.09 ± 0.12 | 1.09 ± 0.1 | 1.12 ± 0.037 | 1.05 ± 0.11 | 1.06 ± 0.091 | 1.04 ± 0.026 | 1.03 ± 0.057 | 1.11 ± 0.041 | 1.1 ± 0.033 | 0.655 ± 0.035 | 0.525 ± 0.0089 | 0.249 ± 0.027 | 0.209 ± 0.0044 |
| SG32 HEADNECK | 0.984 ± 0.025 | 0.986 ± 0.062 | 1.16 ± 0.12 | 1.24 ± 0.26 | 0.823 ± 0.21 | 0.864 ± 0.16 | 0.866 ± 0.039 | 0.834 ± 0.12 | 1.1 ± 0.18 | 1.03 ± 0.1 | 1.42 ± 0.26 | 1.25 ± 0.13 | 0.861 ± 0.061 | 0.497 ± 0.083 | 0.255 ± 0.013 | 0.176 ± 0.026 |
| U2OS BONE | 1.03 ± 0.032 | 1.02 ± 0.037 | 1.11 ± 0.032 | 1.11 ± 0.06 | 1.07 ± 0.059 | 1.13 ± 0.088 | 1.11 ± 0.095 | 1.09 ± 0.095 | 1.03 ± 0.049 | 1.058 ± 0.0092 | 1.06 ± 0.011 | 1.06 ± 0.013 | 0.9133 ± 0.0045 | 0.78 ± 0.038 | 0.293 ± 0.006 | 0.256 ± 0.013 |
| OS25HAL BONE | 1.02 ± 0.034 | 0.973 ± 0.028 | 1.01 ± 0.037 | 0.997 ± 0.061 | 1.03 ± 0.019 | 0.944 ± 0.055 | 0.85 ± 0.05 | 0.795 ± 0.055 | 0.995 ± 0.017 | 1.01 ± 0.035 | 0.974 ± 0.031 | 0.965 ± 0.025 | 0.94 ± 0.045 | 0.788 ± 0.04 | 0.25 ± 0.0061 | 0.196 ± 0.018 |
| C33A CERVIX | 0.986 ± 0.1 | 1.08 ± 0.05 | 1.07 ± 0.031 | 1.01 ± 0.06 | 1.13 ± 0.067 | 1.27 ± 0.031 | 1.2 ± 0.086 | 1.14 ± 0.12 | 0.941 ± 0.029 | 0.984 ± 0.064 | 1.01 ± 0.098 | 0.993 ± 0.081 | 0.62 ± 0.043 | 0.349 ± 0.031 | 0.15 ± 0.016 | 0.14 ± 0.011 |
| SKBR3 BREAST | 1.01 ± 0.13 | 1.02 ± 0.074 | 1 ± 0.037 | 0.994 ± 0.13 | 0.731 ± 0.097 | 0.826 ± 0.18 | 0.744 ± 0.061 | 0.775 ± 0.076 | 1.07 ± 0.18 | 0.925 ± 0.035 | 0.88 ± 0.046 | 1.07 ± 0.018 | 0.786 ± 0.097 | 0.564 ± 0.039 | 0.141 ± 0.014 | 0.116 ± 0.0092 |
| RDES SOFT TISSUE | 1.14 ± 0.097 | 1.25 ± 0.058 | 0.966 ± 0.14 | 1.14 ± 0.14 | 0.847 ± 0.16 | 0.78 ± 0.026 | 0.821 ± 0.2 | 0.944 ± 0.13 | 1.26 ± 0.072 | 1.18 ± 0.21 | 1.17 ± 0.094 | 1.24 ± 0.14 | 1.48 ± 0.18 | 1.14 ± 0.29 | 0.453 ± 0.089 | 0.2 ± 0.03 |
| 22RV1 PROSTATE | 1.04 ± 0.05 | 1.07 ± 0.026 | 1.13 ± 0.079 | 1 ± 0.022 | 1.18 ± 0.13 | 1.09 ± 0.1 | 1.09 ± 0.043 | 1.09 ± 0.038 | 1.04 ± 0.047 | 1.02 ± 0.085 | 0.992 ± 0.097 | 0.949 ± 0.096 | 0.448 ± 0.025 | 0.339 ± 0.065 | 0.126 ± 0.017 | 0.119 ± 0.018 |
